According to patent US20200079793A1, “COMPOUNDS AND METHODS FOR MODULATING ADENOSINE A2B RECEPTOR AND ADENOSINE A2A RECEPTOR” (CORVUS PHARMACEUTICALS, INC., priority 2018, published 2020):

Assays:
Adenosine A2A Receptor = Adenosine A2A Receptor (Homo sapiens, UniProt P29274); assay: Activity assay of adenosine receptor modulators, Adenosine A2A Receptor (Table 1); assay type: biochemical; conditions: cAMP; read-out: A2AR cAMP IC50
Experimental: (§1) Compounds (e.g., adenosine receptor modulators) were tested for its biological activity. The assay results in Table 1 indicate (+ means >1 μM; ++ means 100 nM to 1 μM; +++ means <100 nM).

A1R = target: T1, A1R (Homo sapiens, UniProt P30542); assay: Activity assay of adenosine receptor modulators, A1R cAMP (Table 1); assay type: cell-based
T1 sequence (P30542 1-326): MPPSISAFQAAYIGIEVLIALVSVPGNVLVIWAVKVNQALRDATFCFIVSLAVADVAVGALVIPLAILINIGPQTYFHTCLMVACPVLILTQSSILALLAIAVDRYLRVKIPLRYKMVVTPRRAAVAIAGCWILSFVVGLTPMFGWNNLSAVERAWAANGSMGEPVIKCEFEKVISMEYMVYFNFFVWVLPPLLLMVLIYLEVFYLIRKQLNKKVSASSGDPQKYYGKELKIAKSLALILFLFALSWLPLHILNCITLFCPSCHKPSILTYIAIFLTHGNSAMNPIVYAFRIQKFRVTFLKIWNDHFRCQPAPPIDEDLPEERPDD
Experimental: as §1

A3R = target: T2, A3R (Homo sapiens, UniProt P0DMS8); assay: Activity assay of adenosine receptor modulators, A3R cAMP (Table 1); assay type: cell-based
T2 sequence (P0DMS8 1-318): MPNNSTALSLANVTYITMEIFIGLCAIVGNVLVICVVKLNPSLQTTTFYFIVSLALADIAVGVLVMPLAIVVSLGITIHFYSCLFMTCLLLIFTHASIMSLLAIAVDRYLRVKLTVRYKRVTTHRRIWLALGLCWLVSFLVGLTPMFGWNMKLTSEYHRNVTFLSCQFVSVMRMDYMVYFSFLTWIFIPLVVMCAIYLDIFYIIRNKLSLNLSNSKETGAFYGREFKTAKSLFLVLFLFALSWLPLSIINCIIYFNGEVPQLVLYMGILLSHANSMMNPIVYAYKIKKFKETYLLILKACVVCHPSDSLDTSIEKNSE
Experimental: as §1

Adenosine A2B Receptor = target: T3, Adenosine A2B Receptor (Homo sapiens, UniProt P29275); assay: Activity assay of adenosine receptor modulators, Adenosine A2B Receptor (Table 1); assay type: biochemical; conditions: cAMP; read-out: A2BR cAMP IC50
T3 sequence (P29275 1-332): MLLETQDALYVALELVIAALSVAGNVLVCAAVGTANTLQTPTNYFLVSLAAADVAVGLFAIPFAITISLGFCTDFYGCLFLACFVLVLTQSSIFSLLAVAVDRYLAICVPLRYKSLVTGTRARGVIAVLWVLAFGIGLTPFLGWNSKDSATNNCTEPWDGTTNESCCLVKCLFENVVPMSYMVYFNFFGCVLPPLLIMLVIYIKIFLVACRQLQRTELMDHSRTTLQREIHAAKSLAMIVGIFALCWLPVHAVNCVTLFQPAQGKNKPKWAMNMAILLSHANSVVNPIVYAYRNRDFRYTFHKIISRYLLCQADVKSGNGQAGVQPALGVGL
Experimental: as §1

Adenosine A2A Receptor, sequence (P29274 whole entry): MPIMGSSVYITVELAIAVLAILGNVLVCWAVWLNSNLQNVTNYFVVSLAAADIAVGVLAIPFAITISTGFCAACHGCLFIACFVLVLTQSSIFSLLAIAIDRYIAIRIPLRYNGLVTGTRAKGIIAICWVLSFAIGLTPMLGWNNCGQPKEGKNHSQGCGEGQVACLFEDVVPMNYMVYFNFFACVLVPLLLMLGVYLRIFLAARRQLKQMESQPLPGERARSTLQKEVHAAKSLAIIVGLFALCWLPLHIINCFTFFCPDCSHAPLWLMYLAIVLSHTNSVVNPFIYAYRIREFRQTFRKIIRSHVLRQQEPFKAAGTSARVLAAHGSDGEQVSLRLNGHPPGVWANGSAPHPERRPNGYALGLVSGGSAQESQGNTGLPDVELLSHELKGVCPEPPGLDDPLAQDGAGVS

| Compound | IC50 (Adenosine A2A Receptor) | IC50 (A1R) | IC50 (A3R) | IC50 (Adenosine A2B Receptor) |
| --- | --- | --- | --- | --- |
| Cc1nc2nc(N[C@@H](C)c3ccccn3)nc(C(=O)N3CC(NC(=O)NC(C)(C)C)C3)c2s1 [Example 63, (S)-1-(tert-Butyl)-3-(1-(2-methyl-5-((1-(pyridin-2-yl)ethyl)amino)thiazolo[4,5-d]pyrimidine-7-carbonyl)azetidin-3-yl)urea] | < 100 nM | > 1000 nM | 100 to 1000 nM | 100 to 1000 nM |
| Cc1nc2nc(N[C@@H](C)c3cccnc3)nc(C(=O)N3CC(NC(=O)C(C)(C)C)C3)c2s1 [Example 64, (S)—N-(1-(2-Methyl-5-((1-(pyridin-3-yl)ethyl)amino)thiazolo[4,5-d]pyrimidine-7-carbonyl)azetidin-3-yl)pivalamide] | < 100 nM | > 1000 nM | 100 to 1000 nM | 100 to 1000 nM |
| Cc1nc2nc(N[C@@H](C)c3cncc(F)c3)nc(C(=O)N3CC(NC(=O)Nc4ccccc4)C3)c2s1 [Example 65, (S)-1-(1-(5-((1-(5-Fluoropyridin-3-yl)ethyl)amino)-2-methylthiazolo[4,5-d]pyrimidine-7-carbonyl)azetidin-3-yl)-3-phenylurea] | < 100 nM | > 1000 nM | 100 to 1000 nM | 100 to 1000 nM |
| Cc1nc2nc(N[C@@H](C)c3cncc(F)c3)nc(C(=O)N3CC(NC(=O)C45CCC(CC4)CC5)C3)c2s1 [Example 67, (S)—N-(1-(5-((1-(5-Fluoropyridin-3-yl)ethyl)amino)-2-methylthiazolo[4,5-d]pyrimidine-7-carbonyl)azetidin-3-yl)bicyclo[2.2.2]octane-1-carboxamide] | < 100 nM | > 1000 nM | < 100 nM | < 100 nM |
| Cc1nc2nc(N[C@@H](C)c3cncc(F)c3)nc(C(=O)N3CC(NC(=O)C4CCOCC4)C3)c2s1 [Example 68, (S)—N-(1-(5-((1-(5-Fluoropyridin-3-yl)ethyl)amino)-2-methylthiazolo[4,5-d]pyrimidine-7-carbonyl)azetidin-3-yl)tetrahydro-2H-pyran-4-carboxamide] | < 100 nM | > 1000 nM | 100 to 1000 nM | 100 to 1000 nM |
| Cc1nc2nc(N[C@@H](C)c3cncc(F)c3)nc(C(=O)N3CC(NC(=O)C4CC(F)(F)C4)C3)c2s1 [Example 69, (S)-3,3-Difluoro-N-(1-(5-((1-(5-fluoropyridin-3-yl)ethyl)amino)-2-methylthiazolo[4,5-d]pyrimidine-7-carbonyl)azetidin-3-yl)cyclobutane-1-carboxamide] | < 100 nM | > 1000 nM | 100 to 1000 nM | 100 to 1000 nM |
| Cc1nc2nc(N[C@@H](C)c3cncc(F)c3)nc(C(=O)N3CC(NC(=O)C4(C(F)(F)F)CC4)C3)c2s1 [Example 70, (S)—N-(1-(5-((1-(5-Fluoropyridin-3-yl)ethyl)amino)-2-methylthiazolo[4,5-d]pyrimidine-7-carbonyl)azetidin-3-yl)-1-(trifluoromethyl)cyclopropane-1-carboxamide] | < 100 nM | > 1000 nM | 100 to 1000 nM | < 100 nM |
| COc1cccc(C(=O)NC2CN(C(=O)c3nc(N[C@@H](C)c4cncc(F)c4)nc4nc(C)sc34)C2)c1 [Example 71, (S)—N-(1-(5-((1-(5-Fluoropyridin-3-yl)ethyl)amino)-2-methylthiazolo[4,5-d]pyrimidine-7-carbonyl)azetidin-3-yl)-3-methoxybenzamide] | < 100 nM | > 1000 nM | 100 to 1000 nM | < 100 nM |
| Cc1nc2nc(N[C@@H](C)c3cncc(F)c3)nc(C(=O)N3CC(NC(=O)c4ccoc4)C3)c2s1 [Example 72, (S)—N-(1-(5-((1-(5-Fluoropyridin-3-yl)ethyl)amino)-2-methylthiazolo[4,5-d]pyrimidine-7-carbonyl)azetidin-3-yl)furan-3-carboxamide] | < 100 nM | > 1000 nM | 100 to 1000 nM | 100 to 1000 nM |
| Cc1nc2nc(N[C@@H](C)c3cccnc3)nc(C(=O)N3CC(NC(=O)c4ccccc4)C3)c2s1 [Example 73, N-[1-[2-Methyl-5-[[(S)-1-(3-pyridyl)ethyl]amino]thiazolo[4,5-d]pyrimidine-7-carbonyl]azetidin-3-yl]benzamide] | < 100 nM | > 1000 nM | 100 to 1000 nM | 100 to 1000 nM |
| Cc1nc2nc(N[C@@H](C)c3cccnc3)nc(C(=O)N3CC(NC(=O)c4cccc(F)c4)C3)c2s1 [Example 74, 3-Fluoro-N-[1-[2-methyl-5-[[(S)-1-(3-pyridyl)ethyl]amino]thiazolo[4,5-d]pyrimidine-7-carbonyl]azetidin-3-yl]benzamide] | < 100 nM | > 1000 nM | > 1000 nM | 100 to 1000 nM |
| Cc1nc2nc(N[C@@H](C)c3cccnc3)nc(C(=O)N3CC(NC(=O)C4CCC4)C3)c2s1 [Example 75, N-[1-[2-Methyl-5-[[(S)-1-(3-pyridyl)ethyl]amino]thiazolo[4,5-d]pyrimidine-7-carbonyl]azetidin-3-yl]cyclobutanecarboxamide] | < 100 nM | > 1000 nM | > 1000 nM | 100 to 1000 nM |
| Cc1nc2nc(N[C@@H](C)c3cccnc3)nc(C(=O)N3CC(NC(=O)C4(C)CC4)C3)c2s1 [Example 76, 1-Methyl-N-[1-[2-methyl-5-[[(S)-1-(3-pyridyl)ethyl]amino]thiazolo[4,5-d]pyrimidine-7-carbonyl]azetidin-3-yl]cyclopropanecarboxamide] | < 100 nM | > 1000 nM | 100 to 1000 nM | 100 to 1000 nM |
| Cc1nc2nc(N[C@@H](C)c3cccnc3)nc(C(=O)N3CC(NC(=O)C45CC6CC(CC(C6)C4)C5)C3)c2s1 [Example 77, N-[1-[2-Methyl-5-[[(S)-1-(3-pyridyl)ethyl]amino]thiazolo[4,5-d]pyrimidine-7-carbonyl]azetidin-3-yl]adamantane-1-carboxamide] | < 100 nM | > 1000 nM | 100 to 1000 nM | < 100 nM |
| Cc1nc2nc(N[C@@H](C)c3ccccn3)nc(C(=O)N3CC(NC(=O)Nc4ccccc4)C3)c2s1 [Example 78, 1-[1-[2-Methyl-5-[[(S)-1-(2-pyridyl)ethyl]amino]thiazolo[4,5-d]pyrimidine-7-carbonyl]azetidin-3-yl]-3-phenyl-urea] | < 100 nM | > 1000 nM | > 1000 nM | 100 to 1000 nM |
| Cc1nc2nc(N[C@@H](C)c3cccnc3)nc(C(=O)N3CC(NC(=O)NC4CCCC4)C3)c2s1 [Example 79, 1-Cyclopentyl-3-[1-[2-methyl-5-[[(S)-1-(3-pyridyl)ethyl]amino]thiazolo[4,5-d]pyrimidine-7-carbonyl]azetidin-3-yl]urea] | < 100 nM | > 1000 nM | 100 to 1000 nM | < 100 nM |
| Cc1nc2nc(N[C@@H](C)c3cccnc3)nc(C(=O)N3CC(NC(=O)c4ccoc4)C3)c2s1 [Example 80, N-[1-[2-Methyl-5-[[(S)-1-(3-pyridyl)ethyl]amino]thiazolo[4,5-d]pyrimidine-7-carbonyl]azetidin-3-yl]furan-3-carboxamide] | < 100 nM | > 1000 nM | > 1000 nM | 100 to 1000 nM |
| Cc1nc2nc(N[C@@H](C)c3cccnc3)nc(C(=O)N3CC(NC(=O)C4CCCCC4)C3)c2s1 [Example 81, N-[1-[2-Methyl-5-[[(S)-1-(3-pyridyl)ethyl]amino]thiazolo[4,5-d]pyrimidine-7-carbonyl]azetidin-3-yl]cyclohexanecarboxamide] | < 100 nM | > 1000 nM | 100 to 1000 nM | < 100 nM |
| Cc1nc2nc(N[C@@H](C)c3cccnc3)nc(C(=O)N3CC(NC(=O)C4CCOCC4)C3)c2s1 [Example 82, N-[1-[2-Methyl-5-[[(S)-1-(3-pyridyl)ethyl]amino]thiazolo[4,5-d]pyrimidine-7-carbonyl]azetidin-3-yl]tetrahydropyran-4-carboxamide] | < 100 nM | > 1000 nM | > 1000 nM | 100 to 1000 nM |
| Cc1cc(C)cc(C(=O)NC2CN(C(=O)c3nc(N[C@@H](C)c4cccnc4)nc4nc(C)sc34)C2)c1 [Example 83, 3,5-Dimethyl-N-[1-[2-methyl-5-[[(S)-1-(3-pyridyl)ethyl]amino]thiazolo[4,5-d]pyrimidine-7-carbonyl]azetidin-3-yl]benzamide] | < 100 nM | > 1000 nM | > 1000 nM | < 100 nM |
